Test results published in paper PMC9944328 (Nature Communications, 2023).
Read-outs that look alike come from different tables or passages of the source.

Test system: SSTR2 mutants
Assay: NanoBiT β-arrestin 1 recruitment assay, HEK293 (SSTR2 mutants);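 for Emax: percent of the maximal wild-type SSTR2 response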
Assay type: cell-based, human
Conditions: for Fold of WT: β-arrestin recruitment EC50
Procedure: The NanoBiT β-arrestin 1 recruitment assays were carried out according to the method described previously. […] Human full-length SSTR wild-type and mutant vectors were C-terminally fused with a 15-amino acid flexible linker and the small fragment (SmBiT). HEK293 cells were seeded into six-well microplates at a density of 1.0 × 10^6 cells/well and cultured for 24 h at 37 °C with 5% CO2. After that, cells were co-transfected with pcDNA3.1+ vectors encoding SSTR wild-type or mutants and human β-arrestin 1. After transfecting for 24 h, the transfected cells were suspended and seeded into white 96-well plates, and then cultured at 37 °C overnight. After that the medium in each well was exchanged for 90 μl of 0.01% bovine serum albumin containing 20 μl of 50 μM coelenterazine h (Carbosynth) diluted in the HBSS assay buffer and incubated for 40 min at room temperature. Then, ligands diluted in the assay buffer was added to each well and the luminescence intensity was measured using the Synergy H1 microplate reader and detected at room temperature in a time period. All data presented are means of at least three independent experiments.

[1] = β-arrestin recruitment, SSTR2 F127(3.37)A, n=3
[2] = β-arrestin recruitment, SSTR2 F294(7.35)A, n=3, ND = not detected
[3] = β-arrestin recruitment, SSTR2 I284ECL3A, n=3
[4] = β-arrestin recruitment, SSTR2 K291(7.32)A, n=3, ND = not detected
[5] = β-arrestin recruitment, SSTR2 N276(6.55)A, n=3, ND = not detected
[6] = β-arrestin recruitment, SSTR2 W269(6.48)A, n=3
[7] = β-arrestin recruitment, SSTR2 Y50(1.39)A, n=3
[8] = β-arrestin recruitment, SSTR2 Y205(5.35)A, n=3
[9] = β-arrestin recruitment, SSTR2 Y302(7.43)A, n=3

`N#Cc1cccc(-c2ccc3ncc(-c4cc(F)cc(F)c4)c(N4CCC(N)CC4)c3c2)c1O` [paltusotine] was tested, and the “LogEC50 (β-arrestin1 recruitment)” value (best-fit, K291A-2) was -7.045, the “Span (β-arrestin1 recruitment)” value (best-fit, K291A-2) was 143.2 and the “Top (β-arrestin1 recruitment)” value (best-fit, K291A-2) was 139.9. For the same compound, the “Bottom (β-arrestin1 recruitment)” value (best-fit, K291A-3) was -4.699, the “LogEC50 (β-arrestin1 recruitment)” value (best-fit, K291A-3) was -6.141 and the “Span (β-arrestin1 recruitment)” value (best-fit, K291A-3) was 138.3. For the same compound, the “Top (β-arrestin1 recruitment)” value (best-fit, K291A-3) was 133.6, the “Bottom (β-arrestin1 recruitment)” value (best-fit, N276A-1) was -2.311 and the “LogEC50 (β-arrestin1 recruitment)” value (best-fit, N276A-1) was -7.135. The “Span (β-arrestin1 recruitment)” value (best-fit, N276A-1) was 170, the “Top (β-arrestin1 recruitment)” value (best-fit, N276A-1) was 167.7 and the “Bottom (β-arrestin1 recruitment)” value (best-fit, N276A-2) was -1.74. The “LogEC50 (β-arrestin1 recruitment)” value (best-fit, N276A-2) was -7.135, the “Span (β-arrestin1 recruitment)” value (best-fit, N276A-2) was 128 and the “Top (β-arrestin1 recruitment)” value (best-fit, N276A-2) was 126.3. The “Bottom (β-arrestin1 recruitment)” value (best-fit, N276A-3) was -2.993, the “LogEC50 (β-arrestin1 recruitment)” value (best-fit, N276A-3) was -7.215 and the “Span (β-arrestin1 recruitment)” value (best-fit, N276A-3) was 180.6. For the same compound, the “Top (β-arrestin1 recruitment)” value (best-fit, N276A-3) was 177.6, the “Bottom (β-arrestin1 recruitment)” value (best-fit, Y302A-1) was 0.04519 and the “LogEC50 (β-arrestin1 recruitment)” value (best-fit, Y302A-1) was -6.65. The “Span (β-arrestin1 recruitment)” value (best-fit, Y302A-1) was 206.8, the “Top (β-arrestin1 recruitment)” value (best-fit, Y302A-1) was 206.8 and the “Bottom (β-arrestin1 recruitment)” value (best-fit, Y302A-2) was -0.03402. For the same compound, the “LogEC50 (β-arrestin1 recruitment)” value (best-fit, Y302A-2) was -6.645, the “Span (β-arrestin1 recruitment)” value (best-fit, Y302A-2) was 207.2 and the “Top (β-arrestin1 recruitment)” value (best-fit, Y302A-2) was 207.2. The “Bottom (β-arrestin1 recruitment)” value (best-fit, Y302A-3) was -0.02562, the “LogEC50 (β-arrestin1 recruitment)” value (best-fit, Y302A-3) was -6.645 and the “Span (β-arrestin1 recruitment)” value (best-fit, Y302A-3) was 156. The “Top (β-arrestin1 recruitment)” value (best-fit, Y302A-3) was 156, the EC50 (read-out: Best-fit EC50, SSTR2 I284A, run 1) was 181 nM and the EC50 (read-out: Best-fit EC50, SSTR2 I284A, run 3) was 180 nM. For the same compound, the EC50 (read-out: Best-fit EC50, SSTR2 Y50A, run 1) was 74.4 nM, the EC50 (read-out: Best-fit EC50, SSTR2 Y50A, run 2) was 65 nM and the EC50 (read-out: Best-fit EC50, SSTR2 Y50A, run 3) was 66.7 nM. It also gave an EC50 (read-out: EC50 (best-fit value), SSTR2 W269A, run W269A-1) of 300 nM, an EC50 (read-out: EC50 (best-fit value), SSTR2 W269A, run W269A-2) of 610 nM and an EC50 (read-out: EC50 (best-fit value), SSTR2 W269A, run W269A-3) of 474 nM. It also gave an EC50 (read-out: EC50 (best-fit value), SSTR2 Y205A, run Y205A-2) of 150 nM, an EC50 (read-out: EC50 (best-fit value), SSTR2 Y205A, run Y205A-3) of 213 nM and an EC50 (read-out: EC50 (best-fit), F127A-1) of 210 nM. The EC50 (read-out: EC50 (best-fit), F127A-2) was 197 nM, the EC50 (read-out: EC50 (best-fit), F127A-3) was 152 nM and the EC50 (read-out: EC50 (β-arrestin1 recruitment), best-fit, D295A-1) was 2320 nM. For the same compound, the EC50 (read-out: EC50 (β-arrestin1 recruitment), best-fit, D295A-2) was 2540 nM, the EC50 (read-out: EC50 (β-arrestin1 recruitment), best-fit, D295A-3) was 1970 nM and the EC50 (read-out: EC50 (β-arrestin1 recruitment), best-fit, F294A-1) was 1050 nM. The EC50 (read-out: EC50 (β-arrestin1 recruitment), best-fit, F294A-3) was 872 nM, the EC50 (read-out: EC50 (β-arrestin1 recruitment), best-fit, K291A-1) was 79.7 nM and the EC50 (read-out: EC50 (β-arrestin1 recruitment), best-fit, K291A-2) was 90.2 nM. For the same compound, the EC50 (read-out: EC50 (β-arrestin1 recruitment), best-fit, N276A-1) was 73.2 nM, the EC50 (read-out: EC50 (β-arrestin1 recruitment), best-fit, N276A-3) was 61 nM and the EC50 (read-out: EC50 (β-arrestin1 recruitment), best-fit, Y302A-1) was 224 nM. For the same compound, the EC50 (read-out: EC50 (β-arrestin1 recruitment), best-fit, Y302A-2) was 226 nM, the “Fold of WT” value (SSTR2 D295(7.36)A) was 1.22 and the “Fold of WT” value (SSTR2 F127(3.37)A) was 0.49. The “Fold of WT” value (SSTR2 F294(7.35)A) was 2.44, the “Fold of WT” value (SSTR2 I284ECL3A) was 0.45 and the “Fold of WT” value (SSTR2 K291(7.32)A) was 0.21. The “Fold of WT” value (SSTR2 N276(6.55)A) was 0.17, the “Fold of WT” value (SSTR2 W269(6.48)A) was 2.65 and the “Fold of WT” value (SSTR2 Y50(1.39)A) was 0.17. The “Fold of WT” value (SSTR2 Y205(5.35)A) was 0.42, the “Fold of WT” value (SSTR2 Y302(7.43)A) was 0.56 and the Emax (β-arrestin recruitment, SSTR2 D295(7.36)A, detected at 10 μM, n=3) was 87.12±2.30 %WT. It also gave an EC50 (β-arrestin recruitment, SSTR2 D295(7.36)A, n=3) of 495.7 ± 1.76 nM, an EC50 [1] of 198 ± 6.66 nM and an Emax [1] of 60.24±1.11 %WT. The Emax (β-arrestin recruitment, SSTR2 F208(5.38)A, detected at 10 μM, n=3) was 70.89±2.39 %WT, the Emax (β-arrestin recruitment, SSTR2 F265(6.44)A, detected at 10 μM, n=3 octreotide, 4 paltusotine) was 49.61±1.04 %WT and the EC50 [2] was 990.7 ± 5.93 nM. It also gave an Emax [2] of 114.80±11.09 %WT, an Emax (β-arrestin recruitment, SSTR2 I130(3.40)A, detected at 10 μM, n=3) of 30.45±0.36 %WT and an EC50 [3] of 181 ± 3.33 nM. The Emax [3] was 192.70±19.45 %WT, the EC50 [4] was 86.7 ± 3.5 nM and the Emax [4] was 133.50±14.76 %WT. It also gave an Emax (β-arrestin recruitment, SSTR2 L99(2.60)A, detected at 10 μM, n=3) of 84.26±3.71 %WT, an EC50 [5] of 69.1 ± 4.07 nM and an Emax [5] of 157.20±15.71 %WT. The Emax (β-arrestin recruitment, SSTR2 P220(5.50)A, detected at 10 μM, n=4) was 50.55±2.81 %WT, the Emax (β-arrestin recruitment, SSTR2 Q102(2.63)A, detected at 10 μM, n=3) was 26.07±1.00 %WT and the Emax (β-arrestin recruitment, SSTR2 Q126(3.36)A, detected at 10 μM, n=3) was 65.37±3.31 %WT. The Emax (β-arrestin recruitment, SSTR2 T194(45.51)A, n=3) was 95.9±9.02 %WT, the EC50 [6] was 1077 ± 6.28 nM and the Emax [6] was 50.80±24.99 %WT. The EC50 [7] was 68.7 ± 2.87 nM, the Emax [7] was 90.74±11.02 %WT and the EC50 [8] was 172 ± 2.07 nM. It also gave an Emax [8] of 152.00±23.85 %WT, an EC50 [9] of 225 ± 6.67 nM and an Emax [9] of 190.00±17.00 %WT.
